The target of the assay is T1, Human complement C1s enzyme (Homo sapiens, UniProt P09871).
T1 sequence (P09871 438-688 limits assumed): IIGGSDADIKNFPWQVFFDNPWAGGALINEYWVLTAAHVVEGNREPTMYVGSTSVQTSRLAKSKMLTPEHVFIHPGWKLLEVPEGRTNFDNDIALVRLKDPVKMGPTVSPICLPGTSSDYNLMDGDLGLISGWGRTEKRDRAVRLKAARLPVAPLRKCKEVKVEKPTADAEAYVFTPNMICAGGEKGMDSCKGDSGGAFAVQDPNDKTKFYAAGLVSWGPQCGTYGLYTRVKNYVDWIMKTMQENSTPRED
T1 sequence (P09871 16-437 partner limits assumed): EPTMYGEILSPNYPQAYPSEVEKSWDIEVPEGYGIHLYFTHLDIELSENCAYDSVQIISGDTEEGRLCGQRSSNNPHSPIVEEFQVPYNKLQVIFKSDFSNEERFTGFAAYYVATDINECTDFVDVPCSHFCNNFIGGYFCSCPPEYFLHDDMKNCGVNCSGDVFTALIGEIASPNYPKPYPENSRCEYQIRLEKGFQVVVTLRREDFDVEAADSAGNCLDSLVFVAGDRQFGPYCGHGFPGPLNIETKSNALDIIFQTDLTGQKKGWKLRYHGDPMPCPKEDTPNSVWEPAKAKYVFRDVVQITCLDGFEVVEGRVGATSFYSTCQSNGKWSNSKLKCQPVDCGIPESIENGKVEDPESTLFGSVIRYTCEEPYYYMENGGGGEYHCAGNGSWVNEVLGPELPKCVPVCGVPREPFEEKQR
As to the kind of experiment: Human C1s enzyme assay. The format is biochemical. Conditions: human complement C1s enzyme 1.16 nM, substrate Z-L-Lys-SBzl 100 μM, 5 min preincubation; read-out: IC50 (Stars), C1s Inhibiting Activity. How it is done: Other standard complement assays are also available.
Human complement C1s enzyme (purified from human serum, Complement Technology, Inc.) at 1.16 nM final concentration was incubated with test compound at various concentrations for 5 min at room temperature in 50 mM Tris, 1 M NaCl, pH 7.5. A synthetic substrate Z-L-Lys-SBzl and DTNB (Ellman's reagent) were added to final concentrations of 100 μM each. Absorbance at 405 nm (A405) was recorded at 30 second intervals for 30 min using a microplate spectrophotometer. IC50 values were calculated by nonlinear regression of complement C1 s reaction rates as a function of test compound concentration.
ND indicates a compound for which the IC50 value is not determined.

For orientation: IC50 means the point on the concentration scale where inhibition reaches its midpoint. `O=C(NCC(=O)N1C[C@H](OC(F)F)C[C@H]1C(=O)NCc1cc2cnccc2[nH]1)c1ccc(Oc2ccccc2)cc1` [Compound 18, (2S,4R)-N-((1H-pyrrolo[3,2-c]pyridin-2-yl)methyl)-4-(difluoromethoxy)-1-((4-phenoxybenzoyl)glycyl) pyrrolidine-2-carboxamide]: the IC50 was < 100 nM. The figure for `C[C@@H](NC(=O)[C@@H]1C[C@]2(CO)C[C@@H]2N1C(=O)CNC(=O)c1ccc2c(c1)Oc1ccccc1S2)c1cc2cnccc2[nH]1` [Compound 161, (1S,3S,5R)-N-((R)-1-(1H-pyrrolo[3,2-c]pyridin-2-yl)ethyl)-5-(hydroxymethyl)-2-((phenoxathiine-3-carbonyl)glycyl)-2-azabicyclo[3.1.0]hexane-3-carboxamide] is < 100 nM. Turning to `O=C(NCC(=O)N1C[C@H](OC(F)F)C[C@H]1C(=O)NCc1cc2cnccc2[nH]1)c1cc2c(cc1F)Sc1ccccc1O2` [Compound 355, (2S,4R)-N-((1H-pyrrolo[3,2-c]pyridin-2-yl)methyl)-4-(difluoromethoxy)-1-((2-fluorophenoxathiine-3-carbonyl)glycyl)pyrrolidine-2-carboxamide], the IC50 is < 100 nM.

Take `O=C(NCC(=O)N1C[C@H](OC(F)F)C[C@H]1C(=O)NCc1cc2cnccc2[nH]1)c1ccc2oc3ccccc3c2c1` [Compound 218, (2S,4R)-N-((1H-pyrrolo[3,2-c]pyridin-2-yl)methyl)-1-((dibenzo[b,d]furan-2-carbonyl)glycyl)-4-(difluoromethoxy)pyrrolidine-2-carboxamide]: the IC50 was < 100 nM. As to `O=C(NCC(=O)N1C[C@H](OC(F)F)C[C@H]1C(=O)NCc1ccn2cnnc2c1)c1ccc2c(c1)Oc1ccccc1S2` [Compound 224, (2S,4R)-N-([1,2,4]triazolo[4,3-a]pyridin-7-ylmethyl)-4-(difluoromethoxy)-1-((phenoxathiine-3-carbonyl)glycyl)pyrrolidine-2-carboxamide], the IC50 was > 1000 nM. To `Cc1ccc(Oc2cccc(C(=O)NCC(=O)N3CCC[C@H]3C(=O)NCc3cc4cnccc4[nH]3)c2)c(F)c1` [Compound 310, (S)-N-((1H-pyrrolo[3,2-c]pyridin-2-yl)methyl)-1-((3-(2-fluoro-4-methylphenoxy)benzoyl)glycyl)pyrrolidine-2-carboxamide] belongs < 100 nM; to `O=C(NCC(=O)N1C[C@H](OC(F)F)C[C@H]1C(=O)N[C@@H](CO)c1cc2cnccc2[nH]1)c1ccc2c(c1)-c1ccccc1C2(F)F` [Compound 128, (2S,4R)-1-((9,9-difluoro-9H-fluorene-3-carbonyl)glycyl)-4-(difluoromethoxy)-N-((R)-2-hydroxy-1-(1H-pyrrolo[3,2-c]pyridin-2-yl)ethyl) pyrrolidine-2-carboxamide], > 1000 nM. Consider `C[C@@H](NC(=O)[C@@H]1C[C@@H](OC(F)F)CN1C(=O)CNC(=O)c1ccc2c(c1)C(F)(F)c1ccccc1-2)c1cc2cnccc2[nH]1` [Compound 167, (2S,4R)-N-((R)-1-(1H-pyrrolo[3,2-c]pyridin-2-yl)ethyl)-1-((9,9-difluoro-9H-fluorene-2-carbonyl)glycyl)-4-(difluoromethoxy)pyrrolidine-2-carboxamide], for which the IC50 is < 100 nM.

For the molecule `C[C@@H](NC(=O)[C@@H]1C[C@H](c2ncco2)CN1C(=O)CNC(=O)c1ccc2c(c1)Oc1ccccc1S2)c1cc2cnccc2[nH]1` [Compound 178, (2S,4S)-N-((R)-1-(1H-pyrrolo[3,2-c]pyridin-2-yl)ethyl)-4-(oxazol-2-yl)-1-((phenoxathiine-3-carbonyl)glycyl)pyrrolidine-2-carboxamide], the IC50 was < 100 nM.

`O=C(NCC(=O)N1CC2(C[C@H]1C(=O)NCc1ccc[nH]1)OCCO2)c1ccc(Oc2ccccc2)cc1` [Compound 14, (S)-N-((1H-pyrrol-2-yl)methyl)-7-((4-phenoxybenzoyl)glycyl)-1,4-dioxa-7-azaspiro[4.4]nonane-8-carboxamide]: the IC50 is > 1000 nM.

Values taken from US20260062443A1 (ALEXION PHARMACEUTICALS, INC., priority 2022, published 2026).
